Values of other authors in article PMC3303928 (Bioorganic & medicinal chemistry, 2012).

Conditions: animal tests, racemic mixtures (and their corresponding 3R,4R stereoisomers)

Row | blood-brain barrier (BBB) penetration | Structure (SMILES)
1 | minimal | Cc1cc(N)nc(C[C@H]2CNC[C@H]2NCCNCCc2cccc(F)c2)c1 [Compound 1]
2 | minimal | Cc1cc(N)nc(C[C@H]2CNC[C@H]2OCCNCCc2cccc(F)c2)c1 [Compound 3]
